This note sets out measurements from ChEMBL document CHEMBL1921683, “Radiosynthesis of three [11C]ureido-substituted benzenesulfonamides as PET probes for carbonic anhydrase IX in tumors” (Bioorg Med Chem Lett, 2011).

A short description of the data set: Chemical stability of the compound assessed as decomposition of the compound. The data set is classed as physicochemical.

On to `N#Cc1ccccc1N[11C](=O)Nc1ccc(S(N)(=O)=O)cc1`, for which the Stability entry is on record as “Unstable”.
